ChEMBL document CHEMBL1201862, “PubChem BioAssay data set” (2004)
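Cultured in 96-well plates, cells were exposed to test compound for 48 hours across five concentrations. At the GI50, growth is halved.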 The source made the active and inactive calls. Rule as the data show it: active = GI50 up to about 1.1 µM and inactive = higher.

Experiments:
Experiment in all cases: growth of human tumour cells (NCI), 48 h
786-0 = system: 786-0
A549 = system: A549
BT-549 = system: BT-549
CAKI-1 = system: CAKI-1
DU-145 = system: DU-145
HOP-62 = system: HOP-62
HT-29 = system: HT-29
K562 = system: K562
LOX IMVI = system: LOX IMVI
M14 = system: M14
MDA-N = system: MDA-N
NCI/ADR-RES = system: NCI/ADR-RES
SK-MEL-28 = system: SK-MEL-28
SK-MEL-2 = system: SK-MEL-2
SNB-75 = system: SNB-75
TK-10 = system: TK-10
UACC-62 = system: UACC-62
UO-31 = system: UO-31
RPMI-8226 = system: RPMI-8226
SF-539 = system: SF-539

SMILES	GI50 (786-0)	GI50 (A549)	GI50 (BT-549)	GI50 (CAKI-1)	GI50 (DU-145)	GI50 (HOP-62)	GI50 (HT-29)	GI50 (K562)	GI50 (LOX IMVI)	GI50 (M14)	GI50 (MDA-N)	GI50 (NCI/ADR-RES)	GI50 (SK-MEL-28)	GI50 (SK-MEL-2)	GI50 (SNB-75)	GI50 (TK-10)	GI50 (UACC-62)	GI50 (UO-31)	GI50 (RPMI-8226)	GI50 (SF-539)
Nc1ccc(/N=N/c2c(S(=O)(=O)O)cc3ccccc3c2S(=O)(=O)O)cc1	> 100 µM (inactive)	> 100 µM (inactive)	> 100 µM (inactive)	> 100 µM (inactive)	> 100 µM (inactive)	> 100 µM (inactive)	> 100 µM (inactive)	> 100 µM (inactive)	> 100 µM (inactive)	> 100 µM (inactive)	> 100 µM (inactive)	> 100 µM (inactive)	> 100 µM (inactive)	> 100 µM (inactive)	> 100 µM (inactive)	> 100 µM (inactive)	> 100 µM (inactive)	> 100 µM (inactive)		
CCOC(=O)CC1C(C(=O)OCC)=Cn2c([nH]c3cccc4cccc2c43)=C1C(=O)OCC (stereo not drawn)	> 100 µM (inactive)	> 100 µM (inactive)	> 100 µM (inactive)	> 100 µM (inactive)	> 100 µM (inactive)	> 100 µM (inactive)	> 100 µM (inactive)	> 100 µM (inactive)	> 100 µM (inactive)	> 100 µM (inactive)	> 100 µM (inactive)	> 100 µM (inactive)	> 100 µM (inactive)	> 100 µM (inactive)	> 100 µM (inactive)	> 100 µM (inactive)	> 100 µM (inactive)	> 100 µM (inactive)	> 100 µM (inactive)	
Nc1nc(N)c2c3c(cnc2n1)CC(c1ccccc1)CC3 (stereo not drawn)	7.83 µM (inactive)	2.03 µM (inactive)	17 µM (inactive)	28.1 µM (inactive)	25.4 µM (inactive)	21.6 µM (inactive)	5.66 µM (inactive)	0.875 µM (active)	1.71 µM (inactive)	3.24 µM (inactive)	3.7 µM (inactive)	20.3 µM (inactive)	35.6 µM (inactive)	32.3 µM (inactive)	16.4 µM (inactive)	21.7 µM (inactive)	1.11 µM (active)		> 100 µM (inactive)	14.3 µM (inactive)
Cc1ccc([N+](=O)[O-])cc1S(=O)(=O)Nc1ccc(C2=NN(S(=O)(=O)c3cc([N+](=O)[O-])ccc3C)C(c3ccccc3)C2)cc1 (stereo not drawn)	39.5 µM (inactive)	29.4 µM (inactive)	21.8 µM (inactive)	35.8 µM (inactive)	42.3 µM (inactive)	35.1 µM (inactive)	33.5 µM (inactive)	30.1 µM (inactive)	34.3 µM (inactive)	30.9 µM (inactive)	30.1 µM (inactive)	25.5 µM (inactive)	82.8 µM (inactive)	22.6 µM (inactive)	64.6 µM (inactive)	30.9 µM (inactive)	16 µM (inactive)	28.6 µM (inactive)	22.3 µM (inactive)	
N#CCCN(C(=O)Nc1ccc(NC(=O)N(CCC#N)c2ccccc2)cc1)c1ccccc1	> 100 µM (inactive)	> 100 µM (inactive)	> 100 µM (inactive)	> 100 µM (inactive)	> 100 µM (inactive)	> 100 µM (inactive)	> 100 µM (inactive)	> 100 µM (inactive)	> 100 µM (inactive)	> 100 µM (inactive)	> 100 µM (inactive)	> 100 µM (inactive)	> 100 µM (inactive)	> 100 µM (inactive)	> 100 µM (inactive)		> 100 µM (inactive)	> 100 µM (inactive)	> 100 µM (inactive)	
COc1cc(N(CCC#N)CCC#N)ccc1/C=N\NC(=O)c1ccc(C)cc1	> 100 µM (inactive)	> 100 µM (inactive)	> 100 µM (inactive)	> 100 µM (inactive)	> 100 µM (inactive)	> 100 µM (inactive)	> 100 µM (inactive)	> 100 µM (inactive)	> 100 µM (inactive)	> 100 µM (inactive)	> 100 µM (inactive)	> 100 µM (inactive)	> 100 µM (inactive)	17.3 µM (inactive)	> 100 µM (inactive)	> 100 µM (inactive)	> 100 µM (inactive)			> 100 µM (inactive)
CCOC(=O)Cc1ccc(Nc2nc3ccccc3nc2C(=O)OCC)cc1	34 µM (inactive)	35.2 µM (inactive)	26.2 µM (inactive)	83.6 µM (inactive)	95.9 µM (inactive)	38.3 µM (inactive)	> 100 µM (inactive)		> 100 µM (inactive)	> 100 µM (inactive)	> 100 µM (inactive)	50.7 µM (inactive)	> 100 µM (inactive)	94 µM (inactive)	17.9 µM (inactive)	37.1 µM (inactive)	45.2 µM (inactive)	14.5 µM (inactive)		37.1 µM (inactive)
CC(C)(C)c1cc(C=C(C#N)C#N)cc(C(C)(C)C)c1O [TYRPHOSTIN A9]	0.652 µM (active)	0.316 µM (active)	0.316 µM (active)	0.738 µM (active)	0.372 µM (active)	0.405 µM (active)	0.375 µM (active)	0.305 µM (active)	0.641 µM (active)	0.944 µM (active)	0.608 µM (active)	0.299 µM (active)	3.2 µM (inactive)	0.365 µM (active)	0.857 µM (active)	2.05 µM (inactive)	0.328 µM (active)	0.315 µM (active)		0.259 µM (active)
